# In ChEMBL document CHEMBL1124836 (J Med Chem, 1990):
# pKi: −log10 of the molar value.
# Assays:
# [1] = species on record: Rattus norvegicus; assay: Effective concentration required for 25% increase in coronary flow(CF) in perfused working heart model was determined; type: functional
# [2] = species on record: Rattus norvegicus; assay: Effective concentration required for 25% decrease in heart rate in perfused working heart model was determined
# [3] = target: T1, Adenosine receptor A1 (Rattus norvegicus, UniProt P25099); assay: Adenosine A1 receptor binding was measured in adenosine deaminase (ADA) pretreated rat cortical membranes using [3H]cyclohexyladenosine in the presence of 2-chloroadenosine
# T1 sequence (P25099 whole entry): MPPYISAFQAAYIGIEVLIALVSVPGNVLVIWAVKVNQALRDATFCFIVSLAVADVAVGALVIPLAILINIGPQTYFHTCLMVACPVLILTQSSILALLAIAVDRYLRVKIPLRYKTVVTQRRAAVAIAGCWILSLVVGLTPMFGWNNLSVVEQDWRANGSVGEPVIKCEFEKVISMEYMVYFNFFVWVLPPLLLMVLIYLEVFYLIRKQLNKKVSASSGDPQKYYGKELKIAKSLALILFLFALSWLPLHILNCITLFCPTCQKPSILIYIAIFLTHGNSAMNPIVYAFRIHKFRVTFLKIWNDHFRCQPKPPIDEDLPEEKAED
# [4] = target: Adenosine A2 receptor (Rattus norvegicus, UniProt P29276+P30543)
# [5] = Ratio of A1-receptor binding to that of A2-receptor binding
Structure (SMILES),pKi [3],Ki [4] [nM],Ratio [5],EC25 [1] [nM],EC25 [2] [nM]
CCNC(=O)[C@H]1O[C@@H](n2cnc3c(N)ncnc32)[C@H](O)[C@@H]1O [NECA],,,,5,60
CNC(=O)[C@H]1O[C@@H](n2cnc3c(N)nc(NCCc4ccccc4)nc32)[C@H](O)[C@@H]1O,5.27,77,69,,
CCNC(=O)[C@H]1O[C@@H](n2cnc3c(N)nc(NCc4ccccc4)nc32)[C@H](O)[C@@H]1O,5.07,1130,7.6,,
CCNC(=O)[C@H]1O[C@@H](n2cnc3c(N)nc(N(C)CCc4ccccc4)nc32)[C@H](O)[C@@H]1O,4.92,71,170,,
Nc1nc(NCCc2ccccc2)nc2c1ncn2[C@@H]1O[C@H](C(=O)NC2CC2)[C@@H](O)[C@H]1O,6.30,14,36,,
Nc1nc(Nc2ccccc2)nc2c1ncn2[C@@H]1O[C@H](CO)[C@@H](O)[C@H]1O,,71,,110,> 3000
CCNC(=O)[C@H]1O[C@@H](n2cnc3c(N)nc(NCCc4ccc(CCC(=O)O)cc4)nc32)[C@H](O)[C@@H]1O [CGS-21680],,,,2,> 3000

# The remaining compounds from weak to strong by pKi [3], led by results:
pKi [3],Ki [4] [nM],Ratio [5],Structure (SMILES),EC25 [1] [nM],EC25 [2] [nM]
5.31,45,109,CCNC(=O)[C@H]1O[C@@H](n2cnc3c(N)nc(NCCc4ccc(CC(=O)O)cc4)nc32)[C@H](O)[C@@H]1O,,
5.37,42,101,CCNC(=O)[C@H]1O[C@@H](n2cnc3c(N)nc(NCCc4ccc(OCC(=O)O)cc4)nc32)[C@H](O)[C@@H]1O,,
5.82,7.5,201,CCNC(=O)[C@H]1OC(n2cnc3c(N)nc(NCCc4ccc(Cl)cc4)nc32)[C@H](O)[C@@H]1O (stereo partly specified),,
5.90,9,140,CCNC(=O)[C@H]1O[C@@H](n2cnc3c(N)nc(NCCc4ccc(CCC(=O)OC)cc4)nc32)[C@H](O)[C@@H]1O,,
5.93,7.7,154,CCNC(=O)[C@H]1O[C@@H](n2cnc3c(N)nc(NCCc4ccc(F)cc4)nc32)[C@H](O)[C@@H]1O,,
6.33,,,CCNC(=O)[C@H]1O[C@@H](n2cnc3c(N)nc(NCCc4ccccc4)nc32)[C@H](O)[C@@H]1O,3,> 3000
7.00,,,CNC(=O)[C@H]1O[C@@H](n2cnc3c(N)ncnc32)[C@H](O)[C@@H]1O,,
8.89,636,0.002,CC(=O)O[C@]1(C(C)=O)CC[C@H]2[C@@H]3C=C(Cl)C4=CC(=O)[C@@H]5C[C@@H]5[C@]4(C)[C@H]3CC[C@@]21C [CYPROTERONE ACETATE],,
